Patent publication US8906685B2, “Hanging drop devices, systems and/or methods” (The Regents of The University of Michigan, priority 2010, dated 2014)

How the values were obtained:
[1] = system: A431.H9 cells; assay: anti-cancer drug sensitivity testing, conventional 2D culture in 96-well plates, alamarBlue cell viability; type: cell-based; conditions: Homo sapiens, % cell viability 96 hours after drug treatment, read-out: IC50 of A431.H9 cells cultured in conventional 2D condition
Description: To investigate the stability of long-term hanging drop spheroid culture using the designed array plate, osmolality measurements were performed while culturing three types of cells: kidney fibroblast cell (COS7), murine embryonic stem (mES) cell (ES-D3), and a human carcinoma cell that stably express mesothelin (A431.H9). […]
According to the procedure mentioned above, A431.H9 spheroids at the specified cell numbers were formed, and their growth media were exchanged every other day. […] Cellular viability was monitored at 24, 48, 72, and 96 hours of drug incubation using alamarBlue (Invitrogen). […] Following incubation, each A431.H9 hanging drop spheroid sample plate was read using a plate reader (FLx800 Fluorescence Microplate Reader, Biotek) at 525 nm excitation and 590 nm emission to obtain fluorescence intensity readout. As the fluorescence intensity of alamarBlue is directly proportional to cell number, the average percent cell viability for each drug concentration can be calculated easily by normalizing to the 0 μM untreated spheroid control. […]

[2] = system: A431.H9 spheroids; assay: anti-cancer drug sensitivity testing, 3D spheroids in 384 hanging drop array plate, alamarBlue cell viability; type: cell-based; conditions: Homo sapiens
Description: To investigate the stability of long-term hanging drop spheroid culture using the designed array plate, osmolality measurements were performed while culturing three types of cells: kidney fibroblast cell (COS7), murine embryonic stem (mES) cell (ES-D3), and a human carcinoma cell that stably express mesothelin (A431.H9). Prior to performing hanging drop culture using the plate, ES-D3 cells were cultured in dishes coated with 0.1% w/v porcine gel (Sigma-Aldrich) and maintained in medium consisting of Dulbecco's Modified Eagle's Medium (DMEM) (Gibco 11960, Invitrogen) with 15% v/v fetal bovine serum (FBS) (Gibco 10082, Invitrogen), 4 mM L-glutamin (Invitrogen), 0.1 mM 2-mercapto-ethanol (Sigma-Aldrich), 0.02% v/v sodium pyruvate (Sigma-Aldrich), 100 U ml^−1 penicillin (Invitrogen), 100 U ml^−1 streptomycin (Invitrogen), and 1000 U ml^−1 ESGRO (Invitrogen) which contains leukemia inhibitory factor (LIF). COS7 and A431.H9 cells were cultured in DMEM (Gibco 11965, Invitrogen) with 10% v/v FBS (Gibco 10082, Invitrogen), and 1% v/v antibiotic-antimicotic (Gibco 15240, Invitrogen). All the cells were cultured in a humidified incubator (37° C. in an atmosphere of 5% CO^2). Cell suspensions for the hanging drop experiments were made by dissociating cells with 0.25% trypsin-EDTA (Gibco 25200, Invitrogen), centrifugation of dissociated cells at 1000 rpm for 1 min at room temperature, and re-suspended in growth media. Cell density was estimated using a hemocytometer.
On the spheroid culture plate, a 15 μl cell suspension was dispensed into the access hole at each cell culture site to form a hanging drop. In order to prevent evaporation, 4 ml of distilled water was added into the peripheral water reservoir. In addition, the plate was sandwiched by a well-plate lid and a 96-well plate filled with distilled water, and wrapped using a Parafilm. The growth media was exchanged every other day by taking 5 μl solution from a drop, and adding 7 μl fresh growth media into a drop. For the osmolality measurement, 10 μl sample solution was pipetted out from a drop and transferred to a vapor pressure osmometer (Vapro Model 5520, Wesco, Inc.) for analysis.
According to the procedure mentioned above, A431.H9 spheroids at the specified cell numbers were formed, and their growth media were exchanged every other day. TPZ and 5-FU stock solutions of four times the final testing concentrations (0, 0.1, 1, 10, 100, 1000, 5000 μM) were initially prepared in Dulbecco's phosphate buffered saline (D-PBS) (Gibco 14190, Invitrogen). On day 2 of A431.H9 spheroid culture, 5 μl of the appropriate concentration of TPZ (or 5-FU) stock solutions was subsequently added to each of the 15 μl A431.H9 cell hanging drop droplets. Cellular viability was monitored at 24, 48, 72, and 96 hours of drug incubation using alamarBlue (Invitrogen). Following manufacturer's protocol, 2 μl (one-tenth of each hanging drop sample volume) of alamarBlue was added to each A431.H9 hanging drop spheroid sample and incubated for 2 hours. Following incubation, each A431.H9 hanging drop spheroid sample plate was read using a plate reader (FLx800 Fluorescence Microplate Reader, Biotek) at 525 nm excitation and 590 nm emission to obtain fluorescence intensity readout. As the fluorescence intensity of alamarBlue is directly proportional to cell number, the average percent cell viability for each drug concentration can be calculated easily by normalizing to the 0 μM untreated spheroid control. […]

[3] = system: A431.H9 spheroids; assay: time-lapse images of drug-treated spheroids in 384 hanging drop array plate; type: cell-based, human; conditions: all 3 spheroid sizes, 96 hours; for spheroid size over the drug treatment period: 10 μM drug; for spheroid viability / integrity over the drug treatment period: 5000 μM drug
Description: According to the procedure mentioned above, A431.H9 spheroids at the specified cell numbers were formed, and their growth media were exchanged every other day. TPZ and 5-FU stock solutions of four times the final testing concentrations (0, 0.1, 1, 10, 100, 1000, 5000 μM) were initially prepared in Dulbecco's phosphate buffered saline (D-PBS) (Gibco 14190, Invitrogen). On day 2 of A431.H9 spheroid culture, 5 μl of the appropriate concentration of TPZ (or 5-FU) stock solutions was subsequently added to each of the 15 μl A431.H9 cell hanging drop droplets. Cellular viability was monitored at 24, 48, 72, and 96 hours of drug incubation using alamarBlue (Invitrogen). Following manufacturer's protocol, 2 μl (one-tenth of each hanging drop sample volume) of alamarBlue was added to each A431.H9 hanging drop spheroid sample and incubated for 2 hours. Following incubation, each A431.H9 hanging drop spheroid sample plate was read using a plate reader (FLx800 Fluorescence Microplate Reader, Biotek) at 525 nm excitation and 590 nm emission to obtain fluorescence intensity readout. As the fluorescence intensity of alamarBlue is directly proportional to cell number, the average percent cell viability for each drug concentration can be calculated easily by normalizing to the 0 μM untreated spheroid control. Anti-cancer drug sensitivity experiments under 2D control conditions were performed in standard tissue culture treated 96-well plates (Corning Costar 3596), with everything else being the same as the 3D spheroid experiments. 50% of culture media was replaced by fresh media every other day.
FIGS. 3a-c show the time-lapse images of A431.H9 spheroids treated with TPZ at 0, 10, and 5000 μM for 3 different spheroid sizes (300, 1500, and 7500-cell spheroids). The control untreated A431.H9 spheroids at all 3 sizes still grow and proliferate properly over the duration of drug treatment. […] The IC50 of A431.H9 cells cultured in conventional 2D condition is about 50 μM, while the IC50 of the A431.H9 3D spheroids for all 3 sizes is about 8 μM. Contrary to most anti-cancer drugs, A431.H9 cells treated with TPZ are more resistant when cultured under 2D conditions rather than 3D conditions.
Similarly, FIGS. 4a-c show the time-lapse images of A431.H9 spheroids treated with 5-FU at 0, 10, and 5000 μM for 3 different spheroid sizes (300, 1500, and 7500-cell spheroids). Again, the control untreated A431.H9 spheroids at all 3 sizes all look healthy and still proliferate properly over the duration of drug treatment. […] By 96 hours after drug treatment, significant portions of cells had already dissociated from the A431.H9 spheroids, indicating drug cytotoxicity. […]

[4] = ALL3, 96 h, 3D condition, all 3 spheroid sizes (300, 1500, 7500-cell), 96 hours after drug treatment

IC50 [1] [µM]	IC50 ([2]; 96 h, 300-cell spheroids, 96 hours after treatment) [µM]	IC50 ([2]; 96 h, 1500-cell spheroids, 96 hours after treatment) [µM]	IC50 ([2]; 96 h, 7500-cell spheroids, 96 hours after treatment) [µM]	IC50 [2, 4] [µM]	SMILES	spheroid size over the drug treatment period [3]	spheroid viability / integrity over the drug treatment period [3]
~0.1	~3	~1	~90	1 to 100	O=c1[nH]cc(F)c(=O)[nH]1 [5-FU, 5-fluorouracil]	slowly become smaller	spheroid integrity was greatly compromised
~50	–	–	–	~8	Nc1n[n+]([O-])c2ccccc2[n+]1[O-] [TPZ, tirapazamine]	stayed relatively constant	poor viability
